Columns and labels:
[1] = cited from earlier work; for IL-10 and Tregs / anti-tumour activity: subcutaneous or intraperitoneal administration (Yamazaki et al. 2011)
[2] = tested on: EMT6.5 cells; assay: EMT6.5 orthotopic mammary tumour model, i.v. therapy; format: in vivo, mouse
Experimental: Balb/c mice (n=12) were implanted orthotopically with 100,000 EMT6.5 cells into the 4th inguinal mammary gland and established tumours monitored by calliper measurement. When tumours were ˜200 mm^3 the mice were randomized to either one of two therapeutic arms (n=6 per arm); 1) compound A108 (10 μg, per mouse), or 2) Vehicle (saline) control. Therapy was administered intravenously to tumour bearing mice in three doses, three days apart. All mice completed therapy and were culled 21 days after tumour implant. The primary tumours, lungs and spleens were recovered and weighed. Lungs were analysed by real time quantitative PCR (RTQ-PCR) for evaluation of metastatic burden. Body weight was measured throughout the experiment.

## Pam2CysSK4
[1]; intravenous administration (Maruyama et al. 2015)
  myeloid derived suppressor cells: promotes myeloid derived suppressor cells
[1]
  IL-10 and Tregs: induce IL-10 and Tregs
  anti-tumour activity: no anti-tumour activity

## MALP2
[1]
  IL-10 and Tregs: induce IL-10 and Tregs
  anti-tumour activity: no anti-tumour activity

## CCCCCCCCCCCCCCCC(=O)OC[C@H](CSC[C@H](N)C(=O)N[C@@H](CO)C(=O)NCCOCCOCCOCCOCCOCCOCCOCCOCCOCCOCCOCCOCCOCCOCCOCCOCCOCCOCCOCCOCCOCCOCCOCCOCCOCCOCCOCCOCCC(=O)NCC(N)=O)OC(=O)CCCCCCCCCCCCCCC [A108]
[2]; 10 μg per mouse i.v., three doses
  severe weight loss: No severe weight loss was observed
[2]; 10 μg per mouse i.v., three doses three days apart, data not shown
  body weight on initial therapy: induced an acute weight loss
[2]; following cessation of therapy
  reversibility of weight loss: reversible following cessation of therapy

From patent US20220347146A1, “CANCER TREATMENT” (AXELIA ONCOLOGY PTY LTD, priority 2019, published 2022)
